Laboratory results: the NIST ThermoML archive (doi:10.1016/j.jct.2007.07.005)

Test: xn = mol fraction of the nth substance listed
Details: Fluid (supercritical or subcritical phases), vibrating tube

CCCCCO [pentan-1-ol] + O=C=O
Details	mass density [kg/m3]
313.11 K, 24020 kPa, x2 = 0.0816	821.33
313.11 K, 25023 kPa, x2 = 0.0816	822.02
313.12 K, 10002 kPa, x2 = 0.8573	809.77
313.12 K, 10012 kPa, x2 = 0.7274	838.41
313.12 K, 11010 kPa, x2 = 0.7274	841.91
313.12 K, 11023 kPa, x2 = 0.8573	818.98
313.12 K, 11998 kPa, x2 = 0.7274	845.15
313.12 K, 12025 kPa, x2 = 0.8573	826.77
313.12 K, 13005 kPa, x2 = 0.8573	833.59
313.12 K, 13032 kPa, x2 = 0.7274	848.39
313.12 K, 14012 kPa, x2 = 0.8573	839.94
313.12 K, 14027 kPa, x2 = 0.7274	851.37
313.12 K, 15004 kPa, x2 = 0.7274	854.2
313.12 K, 15004 kPa, x2 = 0.8573	845.66
313.12 K, 15995 kPa, x2 = 0.8573	851
313.12 K, 16022 kPa, x2 = 0.7274	857
313.12 K, 17007 kPa, x2 = 0.8573	856.08
313.12 K, 17019 kPa, x2 = 0.7274	859.65
313.12 K, 18013 kPa, x2 = 0.8573	860.84
313.12 K, 18018 kPa, x2 = 0.7274	862.21
313.12 K, 19038 kPa, x2 = 0.8573	865.44
313.12 K, 19055 kPa, x2 = 0.7274	864.78
313.12 K, 19966 kPa, x2 = 0.7274	866.98
313.12 K, 20008 kPa, x2 = 0.8573	869.59
313.12 K, 21008 kPa, x2 = 0.8573	873.67
313.12 K, 21014 kPa, x2 = 0.7274	869.44
313.12 K, 22009 kPa, x2 = 0.8573	877.54
313.12 K, 22029 kPa, x2 = 0.7274	871.77
313.12 K, 23015 kPa, x2 = 0.8573	881.34
313.12 K, 23059 kPa, x2 = 0.7274	874.05
313.12 K, 23995 kPa, x2 = 0.8573	884.88
313.14 K, 5019 kPa, x2 = 0.1347	808.85
313.14 K, 6010 kPa, x2 = 0.1347	809.58
313.14 K, 7003 kPa, x2 = 0.1347	810.4
313.14 K, 8042 kPa, x2 = 0.1347	811.24
313.14 K, 9023 kPa, x2 = 0.1347	812.05
313.14 K, 10012 kPa, x2 = 0.1347	812.85
313.14 K, 11019 kPa, x2 = 0.1347	813.62
313.14 K, 12025 kPa, x2 = 0.1347	814.42
313.14 K, 13017 kPa, x2 = 0.1347	815.18
313.14 K, 14011 kPa, x2 = 0.1347	815.96
313.14 K, 15011 kPa, x2 = 0.1347	816.73
313.14 K, 16014 kPa, x2 = 0.1347	817.47
313.14 K, 17041 kPa, x2 = 0.1347	818.22
313.14 K, 18022 kPa, x2 = 0.1347	818.95
313.14 K, 19022 kPa, x2 = 0.1347	819.67
313.14 K, 20012 kPa, x2 = 0.1347	820.39
313.14 K, 21027 kPa, x2 = 0.1347	821.12
313.14 K, 22024 kPa, x2 = 0.1347	821.83
313.14 K, 23011 kPa, x2 = 0.1347	822.55
313.14 K, 24032 kPa, x2 = 0.1347	823.28
313.14 K, 25004 kPa, x2 = 0.1347	824
313.17 K, 8123 kPa, x2 = 0.6054	838.39
313.17 K, 9084 kPa, x2 = 0.6054	840.4
313.17 K, 10125 kPa, x2 = 0.6054	842.5
313.17 K, 11050 kPa, x2 = 0.6054	844.32
313.17 K, 12045 kPa, x2 = 0.6054	846.23
313.17 K, 13094 kPa, x2 = 0.6054	848.18
313.17 K, 14054 kPa, x2 = 0.6054	849.93
313.17 K, 15019 kPa, x2 = 0.6054	851.65
313.17 K, 16045 kPa, x2 = 0.6054	853.41
313.17 K, 17046 kPa, x2 = 0.6054	855.12
